Results: patent US7547728B2, “Treating muscle wasting with selective androgen receptor modulators” (priority 2001, dated 2009)
Where “and” joins values, the source holds several entries; their conditions need not be identical. Equal entries are not always repeated. Where two headings read alike, the source gives them in different places.

Columns and labels:
levator ani muscle = assay: Anabolic activity: levator ani muscle weight in male rats; assay type: in vivo, rat; conditions: for Levator ani muscle weight compared with intact controls: castrated male rats, 0.1-1 mg/day (FIG. 7); for ED50 / Emax (% of Intact Control) / Relative Afficacy / Relative Potency: levator ani muscle; for ED50 / Emax (% of Intact Control): dose response 0.1-1.0 mg/day; for Relative Afficacy / Relative Potency: relative to TP
Text: (§1) Male Sprague-Dawley rats were purchased from Harlan Biosciences (Indianapolis, Ind.). […] One day before the initiation of drug treatment, groups 4 through 6 and groups 7 through 9 received unilateral or bilateral orchidectomy, respectively, via a midline scrotal incision. […] All drugs given to animals were freshly prepared as solutions in polyethylene glycol 300 (PEG 300). Groups 4 and 7 received treatment with vehicle alone (i.e., PEG 300). […] The ventral prostates, seminal vesicles, and levator ani muscle were removed and weighed. Osmotic pumps were also removed from animals to check for correct pump operation. […] Statistical analyses of parameters from complete blood count or serum chemical profiling, wherever applicable, were performed by single-factor ANOVA with the alpha value set a priori at p<0.05.

androgen receptor = molecular target: T1, androgen receptor (Rattus norvegicus, UniProt P15207); assay: biochemical; assay type: binding; conditions: for RBA (%): relative binding affinity
T1 construct: from tissue
T1 sequence (P15207 1-902): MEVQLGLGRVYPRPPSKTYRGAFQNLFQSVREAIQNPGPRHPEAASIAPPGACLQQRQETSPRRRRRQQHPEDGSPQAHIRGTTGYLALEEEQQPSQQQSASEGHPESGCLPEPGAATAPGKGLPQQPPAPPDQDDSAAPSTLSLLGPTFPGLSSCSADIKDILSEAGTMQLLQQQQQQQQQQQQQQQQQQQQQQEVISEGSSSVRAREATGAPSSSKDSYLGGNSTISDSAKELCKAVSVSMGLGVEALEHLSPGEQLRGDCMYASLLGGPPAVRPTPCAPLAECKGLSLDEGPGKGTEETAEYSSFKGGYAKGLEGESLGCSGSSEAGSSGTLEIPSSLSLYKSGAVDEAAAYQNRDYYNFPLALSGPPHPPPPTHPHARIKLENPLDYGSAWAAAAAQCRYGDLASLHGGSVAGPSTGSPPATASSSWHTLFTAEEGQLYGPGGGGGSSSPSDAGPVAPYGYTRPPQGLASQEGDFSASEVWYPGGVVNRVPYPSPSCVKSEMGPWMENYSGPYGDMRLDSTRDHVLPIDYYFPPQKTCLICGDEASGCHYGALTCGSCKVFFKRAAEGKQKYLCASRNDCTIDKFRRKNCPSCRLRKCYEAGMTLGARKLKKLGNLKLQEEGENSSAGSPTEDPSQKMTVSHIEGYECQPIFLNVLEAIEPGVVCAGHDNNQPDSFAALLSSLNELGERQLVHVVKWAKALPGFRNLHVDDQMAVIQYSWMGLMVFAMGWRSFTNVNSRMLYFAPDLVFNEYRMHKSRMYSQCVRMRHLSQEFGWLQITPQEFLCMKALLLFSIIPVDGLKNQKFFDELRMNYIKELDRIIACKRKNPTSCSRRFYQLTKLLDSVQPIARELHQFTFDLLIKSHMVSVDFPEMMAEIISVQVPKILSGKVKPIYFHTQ

prostate = assay: Androgenic activity: prostate weight in male rats; assay type: in vivo, rat; conditions: for Agonist character in prostate: male rats, from organ weights
Text: as §1

seminal vesicles = assay: Androgenic activity: seminal vesicle weight in male rats; assay type: in vivo, rat; conditions: for Seminal Vesicles weight / ED50 / Emax (% of Intact Control): castrated rats; for Agonist character in seminal vesicles: male rats, from organ weights; for ED50 / Emax (% of Intact Control) / Relative Afficacy / Relative Potency: seminal vesicle; for ED50 / Emax (% of Intact Control): dose response 0.1-1.0 mg/day; for Relative Afficacy / Relative Potency: relative to TP
Text: as §1

MHC IIb mRNA = MHC IIb mRNA expression in masseter and gastrocnemius muscle of intact male rats; conditions: TP 5 mg/kg/day, Compound V 1 mg/kg/day
MHC II b mRNA = assay: MHC IIb mRNA expression by RT-PCR in masseter muscle of intact female rats; assay type: in vivo, rat
Protocol: Rat muscle tissue was harvested in 5 volumes of RNA later solution (Ambion, cat.# 7020) and stored at 4° C. until used for RNA isolation. Total RNA was isolated in the FastPrep FP120 instrument (Qbiogene) using RNAqueous-4PCR kit (Ambion, cat # 1914) in combination with FastRNA green tubes (Qbiogene, cat.# 6040-600) at settings for time at 45 sec and speed at 6.5.1 ug of total RNA was used for reverse transcription using Retroscript kit (Ambion, cat# 1710). The mixture was incubated at 42° C. for 60 min, followed by 10 min at 92° C., and then chilled on ice and used in PCR reaction.
Relatively quantitative RT-PCR was used to analyze expression of MHC mRNA in rat musculus masseter (MM) and levator ani (LA). As an internal standard 18S ribosomal RNA was used (QuantumRNA classic 18S Internal Standard, Ambion, cat.# 1716). Linear range of PCR reaction for all primers as well as optimal ratio of 18S primers to competitors to achieve the same level of amplification as the genes of interest was determined.
Primers were obtained from IDT based on the recently published design (Wright et al., J. Appl. Phys. 1997;83:1389), with the following sequence: 5′[…]3′. […]
5 units of Taq DNA polymerase (Roche, cat# 1146165), 200 μM of each dNTP (Invitrogen, cat.#R725-01), 0.2 μM each MHC primer (IDT), 1 μl of cDNA from reverse transcription reaction and 4 μl of 18S primers: competitors mixture were used in 50 μl PCR reaction. […] PCR products were analyzed by agarose gel electrophoresis [20-μl aliquots of a 50-μl PCR reaction loaded on a 1.5% agarose gel (in 1× Tris-Acetate-EDTA buffer) containing 0.2 μg/ml ethidium bromide] to visualize the PCR products. […] Pictures were scanned and the volume of the optical density (OD) of a DNA band was determined by the Image Quant software (Molecular Dynamics), and the background was subtracted (so local background was directly proportional to the amount of DNA over a wide range). […] The content of each experimental group MHC gene was calculated as a percentage of the MHC value in the control group (Table 2).

levator ani = assay: Levator ani evaluation in androgen-treated intact female rats; assay type: in vivo, rat; conditions: 14 and 28 days treatment
Text: In these same rats, the levator ani was dissected and evaluated for the expression pattern of MHC family members. […] Physiol. 75(5): 2337-2340, 1993].

[1] = Adverse pharmacologic effects in rats of varying hormonal status; assay type: in vivo, rat; conditions: male rats, 0.5 mg/day, 14 days
FSH, LH and testosterone = assay: Plasma concentrations of FSH, LH and testosterone in treated male rats; assay type: in vivo, rat; conditions: data not shown
[2] = castrated rats, 1 mg/day, daily injection
[3] = prostate, castrated rats, dose response 0.1-1.0 mg/day

With `C[C@](O)(COc1c(F)c(F)c(F)c(F)c1F)C(=O)Nc1ccc([N+](=O)[O-])c(C(F)(F)F)c1` [Compound XII] the “Levator Ani Muscle weight” value (levator ani muscle; castrated rats, 1 mg/day via osmotic pump) was 122.5±10.4 % of intact, the “RBA (%)” value (androgen receptor) was 13.3% and the Prostate weight (prostate; [2]) was 7.2 ± 1.4 % of intact. The “Agonist character in prostate” value (prostate) was “weak partial agonist”, the “Seminal Vesicles weight” value (seminal vesicles; 1 mg/day, daily injection) was 7.2 ± 0.9 % of intact and the “Agonist character in seminal vesicles” value (seminal vesicles) was “weak partial agonist”.
With `C[C@](O)(COc1ccc(I)cc1)C(=O)Nc1ccc([N+](=O)[O-])c(C(F)(F)F)c1` [Compound IX] the “Levator ani muscle weight compared with intact controls” value (levator ani muscle) was “close to those of the intact controls” and the “RBA (%)” value (androgen receptor) was 2.7%.
With `CCC(=O)O[C@H]1CC[C@H]2[C@@H]3CCC4=CC(=O)CC[C@]4(C)[C@H]3CC[C@]12C` [TP, testosterone propionate, reference compound] the “ED50” value (levator ani muscle; castrated rats) was 0.15 ± 0.03 mg/day, the “Emax (% of Intact Control)” value (levator ani muscle; castrated rats) was 104.2 ± 10.1 % of Intact Control and the “Relative Afficacy” value (levator ani muscle) was 1.00. For the same molecule, the “Relative Potency” value (levator ani muscle) was 1.00, the “MHC type IIb transcription, % of untreated control” value (from here on “MHC type IIb transcription, %”) (MHC IIb mRNA; gastrocnemius muscle) was 139(±47) % and the “MHC type IIb transcription, %” value (MHC IIb mRNA; masseter muscle) was 120(±14) %. For the same molecule, the “MHC IIb expression, % of untreated control” value (from here on “MHC IIb expression, %”) (MHC II b mRNA) was 141.5%, the “MHC IIb expression, %” value (MHC II b mRNA; listed as testosterone propionate) was 142% and the “Presence of levator ani muscle after treatment” value (levator ani) was “had a muscle present in the location expected for the levator ani”. For the same molecule, the “ED50” value (prostate; [3]) was 0.13 ± 0.03 mg/day, the “Emax (% of Intact Control)” value (prostate; [3]) was 120.6 ± 13.4 % of Intact Control and the “Relative Afficacy” value (prostate; prostate, relative to TP) was 1.00. The “Relative Potency” value (prostate; prostate, relative to TP) was 1.00, the “ED50” value (seminal vesicles) was 0.12 ± 0.02 mg/day and the “Emax (% of Intact Control)” value (seminal vesicles) was 70.0 ± 18.8 % of Intact Control. For the same molecule, the “Relative Afficacy” value (seminal vesicles) was 1.00 and the “Relative Potency” value (seminal vesicles) was 1.00.
With `C[C@](O)(COc1ccc(F)c(F)c1)C(=O)Nc1ccc([N+](=O)[O-])c(C(F)(F)F)c1` [Compound XI] the Ki (androgen receptor) was 3.4 ± 0.56 nM, the Prostate weight (prostate; [2]) was 33.1 ± 8.5 % of intact and the “Agonist character in prostate” value (prostate) was “weak partial agonist”. The “Seminal Vesicles weight” value (seminal vesicles; 1 mg/day, daily injection) was 23.6 ± 8.8 % of intact and the “Agonist character in seminal vesicles” value (seminal vesicles) was “weak partial agonist”.
In the case of `C[C@](O)(COc1ccc(F)cc1)C(=O)Nc1ccc([N+](=O)[O-])c(C(F)(F)F)c1` [Compound VI], the “Levator ani muscle weight compared with intact controls” value (levator ani muscle) is reported as “close to those of the intact controls”, the “ED50” value (levator ani muscle; castrated rats) is reported as 0.44 ± 0.01 mg/day and the “Emax (% of Intact Control)” value (levator ani muscle; castrated rats) is reported as 74.9 ± 0.4 % of Intact Control. For the same molecule, the “Relative Afficacy” value (levator ani muscle) was 0.72, the “Relative Potency” value (levator ani muscle) was 0.34 and the “ED50” value (seminal vesicles) was 0.38 ± 0.26 mg/day. For the same molecule, the “Emax (% of Intact Control)” value (seminal vesicles) was 12.7 ± 3.1 % of Intact Control, the “Relative Afficacy” value (seminal vesicles) was 0.18 and the “Relative Potency” value (seminal vesicles) was 0.32.
For `C[C@](O)(COc1ccc(Br)cc1)C(=O)Nc1ccc([N+](=O)[O-])c(C(F)(F)F)c1` [Compound VIII], the “Levator ani muscle weight compared with intact controls” value (levator ani muscle) was “close to those of the intact controls” and the “RBA (%)” value (androgen receptor) was 5.3%.
For `C[C@](O)(COc1ccc(Cl)cc1)C(=O)Nc1ccc([N+](=O)[O-])c(C(F)(F)F)c1` [Compound VII], the “Levator ani muscle weight compared with intact controls” value (levator ani muscle) was “exceeding those of intact controls”.
In the case of `C[C@](O)(COc1ccc(F)cc1)C(=O)Nc1ccc(C#N)c(C(F)(F)F)c1` [Compound X], the “Levator Ani weight” value (levator ani muscle; castrated rats, 0.10 mg/day) is reported as 54.9 ± 5.77 % of intact, the “Levator Ani weight” value (levator ani muscle; castrated rats, 0.50 mg/day) is reported as 55.0 ± 9.23 % of intact and the “Levator Ani weight” value (levator ani muscle; castrated rats, 0.75 mg/day) is reported as 68.9 ± 8.46 % of intact. The “Levator Ani weight” value (levator ani muscle; castrated rats, 1.00 mg/day) was 75.2±9.51 % of intact, the Prostate weight (prostate; castrated rats, 0.10 mg/day) was 6.4 ± 0.82 % of intact and the Prostate weight (prostate; castrated rats, 0.50 mg/day) was 6.2 ± 0.56 % of intact. The Prostate weight (prostate; castrated rats, 0.75 mg/day) was 7.6 ± 0.74 % of intact, the Prostate weight (prostate; castrated rats, 1.00 mg/day) was 8.7±1.39 % of intact and the “Agonist character in prostate” value (prostate) was “weak partial agonist”. The “Seminal Vesicles weight” value (seminal vesicles; 0.10 mg/day) was 8.8 ± 1.18 % of intact, the “Seminal Vesicles weight” value (seminal vesicles; 0.50 mg/day) was 9.3 ± 1.57 % of intact and the “Seminal Vesicles weight” value (seminal vesicles; 0.75 mg/day) was 9.8 ± 3.65 % of intact. For the same molecule, the “Seminal Vesicles weight” value (seminal vesicles; 1.00 mg/day) was 10.7±0.91 % of intact and the “Agonist character in seminal vesicles” value (seminal vesicles) was “weak partial agonist”.
In the case of `CC(=O)Nc1ccc(OC[C@](C)(O)C(=O)Nc2ccc([N+](=O)[O-])c(C(F)(F)F)c2)cc1` [Compound V], the “Agonist character in levator ani muscle” value (levator ani muscle; male rats, from organ weights) is reported as “full agonist”, the “MHC type IIb transcription, %” value (MHC IIb mRNA; gastrocnemius muscle) is reported as 162(±54) % and the “MHC type IIb transcription, %” value (MHC IIb mRNA; masseter muscle) is reported as 117(±13) %. For the same molecule, the “MHC IIb expression, %” value (MHC II b mRNA) was 124% and 124.5%, the Adverse pharmacologic effects [1] was “No adverse pharmacologic effects were observed” and the “Changes in plasma concentrations of FSH, LH and testosterone” value (FSH, LH and testosterone) was “absence of any significant changes”. The “Presence of levator ani muscle after treatment” value (levator ani) was “had a muscle present in the location expected for the levator ani”, the “Agonist character in prostate” value (prostate) was “partial agonist” and the “Agonist character in seminal vesicles” value (seminal vesicles) was “partial agonist”. The “ED50” value (seminal vesicles) was 0.55 ± 0.02 mg/day and the “Emax (% of Intact Control)” value (seminal vesicles) was 28.5 ± 0.8 % of Intact Control.
